# US20210400977A1, “META-DIAMIDE COMPOUNDS FOR CONTROLLING INVERTEBRATE PESTS” (FMC Corporation, priority 2018, published 2021)
# Tests used:
# [1] = tested on: cotton melon aphid (Aphis gossypii (Glover)); test: Test F: control of cotton melon aphid through contact and/or systemic means; type: in vivo; conditions: 144 h, assessed after 6 days; for mortality at 50 ppm: sprayed at 50 ppm; for mortality at 250 ppm: sprayed at 250 ppm
# [2] = tested on: green peach aphid (Myzus persicae (Sulzer)); test: Test E: control of green peach aphid through contact and/or systemic means; type: in vivo; conditions: 144 h, assessed after 6 days; for mortality at 50 ppm: sprayed at 50 ppm; for mortality at 250 ppm: sprayed at 250 ppm
# Description: (§1) Test compounds were formulated using a solution containing 10% acetone, 90% water and 300 ppm Activator 90® non-ionic surfactant (Loveland Products, Loveland, Colo., USA). The formulated compounds were applied in 1 mL of liquid through an atomizer nozzle positioned 1.27 cm (0.5 inches) above the top of each test unit. Test compounds were sprayed at the rates indicated, and each test was replicated three times.
# For evaluating control of green peach aphid (Myzus persicae (Sulzer)) through contact and/or systemic means, the test unit consisted of a small open container with a 12-15-day-old radish plant inside. This was pre-infested by placing on a leaf of the test plant 30-40 aphids on a piece of leaf excised from a culture plant (cut-leaf method). The aphids moved onto the test plant as the leaf piece desiccated. After pre-infestation, the soil of the test unit was covered with a layer of sand.
# Test compounds were formulated and sprayed at 250 and/or 50 ppm. After spraying of the formulated test compound, each test unit was allowed to dry for 1 hour and then a black, screened cap was placed on top. The test units were held for 6 days in a growth chamber at 19-21° C. and 50-70% relative humidity. Each test unit was then visually assessed for insect mortality.
# [3] = tested on: potato leafhopper (Empoasca fabae (Harris)); test: Test D: control of potato leafhopper through contact and/or systemic means; type: in vivo; conditions: 144 h, assessed after 6 days; for mortality at 50 ppm: sprayed at 50 ppm; for mortality at 250 ppm: sprayed at 250 ppm
# Description: as §1
# For evaluating control of potato leafhopper (Empoasca fabae (Harris)) through contact and/or systemic means, the test unit consisted of a small open container with a 5-6-day-old Soleil bean plant (primary leaves emerged) inside. White sand was added to the top of the soil, and one of the primary leaves was excised prior to application of the test compound.
# Test compounds were formulated and sprayed at 250 and/or 50 ppm. After spraying of the formulated test compound, the test units were allowed to dry for 1 hour before they were post-infested with 5 potato leafhoppers (18-to-21-day-old adults). A black, screened cap was placed on the top of the test unit, and the test units were held for 6 days in a growth chamber at 20° C. and 70% relative humidity. Each test unit was then visually assessed for insect mortality.
# [4] = tested on: sweetpotato whitefly (Bemisia tabaci (Gennadius)); test: Test G: control of sweetpotato whitefly through contact and/or systemic means; type: in vivo; conditions: 312 h, assessed after 13 days; for mortality at 50 ppm: sprayed at 50 ppm; for mortality at 250 ppm: sprayed at 250 ppm
# Description: as §1
# For evaluating control of the sweetpotato whitefly (Bemisia tabaci (Gennadius)) through contact and/or systemic means, the test unit consisted of a small open container with a 12-14-day-old cotton plant or 7-9-day-old soybean plant inside. Prior to the spray application, both cotyledons were removed from the plant, leaving one true leaf for the assay. Adult whiteflies were allowed to lay eggs on the plant and then were removed from the test unit. Cotton or soybean plants infested with at least 15 eggs were submitted to the test for spraying.
# Test compounds were formulated and sprayed at 250 and/or 50 ppm. After spraying, the test units were allowed to dry for 1 hour. The cylinders were then removed, and the units were taken to a growth chamber and held for 13 days at 28° C. and 50-70% relative humidity. Each test unit was then visually assessed for insect mortality.
melting point [°C],SMILES,mortality at 50 ppm [1] [%],mortality at 250 ppm [1] [%],mortality at 50 ppm [2] [%],mortality at 250 ppm [2] [%],mortality at 50 ppm [3] [%],mortality at 250 ppm [3] [%],mortality at 50 ppm [4] [%],mortality at 250 ppm [4] [%]
,"O=C(Nc1ccc(Cl)c(CNC(=O)C(F)(F)F)c1)C1C(c2ccc(F)c(Cl)c2)C1(Cl)Cl (stereo not drawn) [Compound 19, 2,2-dichloro-3-(3-chloro-4-fluorophenyl)-N-[4-chloro-3-[[(2,2,2-trifluoroacetyl)amino]methyl]phenyl]cyclopropanecarboxamide]",≥ 80,≥ 80,≥ 80,≥ 80,≥ 80,≥ 80,≥ 70,≥ 70
151 to 155,CN(Cc1cc(NC(=O)C2C(c3cc(Cl)cc(Cl)c3)C2(F)F)ccc1Cl)C(=O)C1CC1 (stereo not drawn) [Compound 32],,,,,,,,
,"O=C(NCc1cc(NC(=O)C2C(c3ccc(F)c(C(F)(F)F)c3)C2(Cl)Cl)ccc1Cl)C1CC1 (stereo not drawn) [Compound 39, 2,2-dichloro-N-[4-chloro-3-[[(cyclopropylcarbonyl)amino]methyl]phenyl]-3-[4-fluoro-3-(trifluoromethyl)phenyl]cyclopropanecarboxamide]",≥ 80,≥ 80,≥ 80,≥ 80,≥ 80,≥ 80,≥ 70,≥ 70
,CC(=O)NCc1cc(NC(=O)C2C(c3cc(Cl)cc(Cl)c3)C2(F)F)ccc1Cl (stereo not drawn) [Compound 47],≥ 80,≥ 80,,≥ 80,≥ 80,≥ 80,,
,O=C(NCc1cc(NC(=O)C2C(c3cc(Cl)cc(Cl)c3)C2(F)F)ccc1Cl)C1CC1 (stereo not drawn) [Compound 48],,≥ 80,,,≥ 80,≥ 80,,
,"CCC(=O)NCc1cc(NC(=O)C2C(c3cc(Cl)cc(Cl)c3)C2(Cl)Cl)ccc1F (stereo not drawn) [Compound 55, 2,2-dichloro-3-(3,5-dichlorophenyl)-N-[4-fluoro-3-[(propanoylamino)methyl]phenyl]cyclopropane-1-carboxamide]",≥ 80,≥ 80,≥ 80,≥ 80,≥ 80,≥ 80,,
,"O=C(NCc1cc(NC(=O)C2C(c3cc(Cl)cc(Cl)c3)C2(Cl)Cl)ccc1Cl)C1CC1 (stereo not drawn) [Compound 62, 2,2-dichloro-N-[4-chloro-3-[(cyclopropanecarbonylamino)methyl]phenyl]-3-(3,5-dichlorophenyl)cyclopropane-1-carboxamide]",≥ 80,≥ 80,≥ 80,≥ 80,≥ 80,≥ 80,,≥ 70
,"O=C(NCc1cc(NC(=O)C2C(c3ccc(F)c(C(F)(F)F)c3)C2(Cl)Cl)ccc1F)C1CC1 (stereo not drawn) [Compound 77, 2,2-dichloro-N-[3-[[(cyclopropylcarbonyl)amino]methyl]-4-fluorophenyl]-3-[4-fluoro-3-(trifluoromethyl)phenyl]cyclopropanecarboxamide]",≥ 80,,≥ 80,,≥ 80,,≥ 70,≥ 70
,"O=C(CC(F)(F)F)NCc1cc(NC(=O)C2C(c3ccc(F)c(C(F)(F)F)c3)C2(Cl)Cl)ccc1F (stereo not drawn) [Compound 78, 2,2-dichloro-3-[4-fluoro-3-(trifuoromethyl)phenyl]-N-[4-fluoro-3-[[(3,3,3-trifluoro-1-oxopropyl)amino]methyl]phenyl]cyclopropanecarboxamide]",≥ 80,,≥ 80,,≥ 80,,≥ 70,
,"O=C(CC(F)(F)F)NCc1cc(NC(=O)C2C(c3ccc(Cl)c(Cl)c3)C2(Cl)Cl)ccc1F (stereo not drawn) [Compound 79, 2,2-dichloro-3-(3,4-dichlorophenyl)-N-[4-fluoro-3-[[(3,3,3-trifluoro-1-oxopropyl)amino]methyl]phenyl]cyclopropanecarboxa-mide]",≥ 80,,,,≥ 80,,,≥ 70
,CCC(=O)NC(C)c1cc(NC(=O)C2C(c3cc(Cl)cc(Cl)c3)C2(Cl)Cl)ccc1Cl (stereo not drawn) [Compound 86],,,,,≥ 80,,,
,CC(NC(=O)C1CC1)c1cc(NC(=O)C2C(c3cc(Cl)cc(Cl)c3)C2(Cl)Cl)ccc1Cl (stereo not drawn) [Compound 87],,,,,≥ 80,,,
,"O=C(CC(F)(F)F)NCc1cc(NC(=O)C2C(c3ccc(F)c(C(F)(F)F)c3)C2(Cl)Cl)ccc1Cl (stereo not drawn) [Compound 116, 2,2-dichloro-N-[4-chloro-3-[[(3,3,3-trifluoro-1-oxopropyl)amino]methyl]phenyl]-3-[4-fluoro-3-(trifluoromethyl)phenyl]cyclopropanecarboxamide]",,,,,≥ 80,,,
,"O=C(CC(F)(F)F)NCc1cc(NC(=O)C2C(c3cc(F)c(F)c(F)c3)C2(Cl)Cl)ccc1Cl (stereo not drawn) [Compound 118, 2,2-dichloro-N-[4-chloro-3-[[(3,3,3-trifluoro-1-oxopropyl)amino]methyl]phenyl]-3-(3,4,5-trifluorophenyl)cyclopropanecarboxamide]",,,,,≥ 80,,,≥ 70
,"O=C(CC(F)(F)F)NCc1cc(NC(=O)C2C(c3cc(F)cc(Cl)c3)C2(Cl)Cl)ccc1F (stereo not drawn) [Compound 129, 2,2-dichloro-3-(3-chloro-5-fluorophenyl)-N-[4-fluoro-3-[[(3,3,3-trifluoro-1-oxopropyl)amino]methyl]phenyl]cyclopropanecarboxamide]",≥ 80,,≥ 80,,≥ 80,,≥ 70,≥ 70
101 to 105,CC(=O)NCc1ccc(Cl)c(NC(=O)C2C(c3cc(Cl)cc(Cl)c3)C2(Cl)Cl)c1 (stereo not drawn) [Compound 135],,,,,,,,
,CCC(=O)NCc1cc(NC(=O)C2C(c3cc(Cl)cc(Cl)c3)C2(Cl)Cl)ccc1Cl (stereo not drawn) [Compound 147],≥ 80,≥ 80,≥ 80,≥ 80,≥ 80,≥ 80,≥ 70,≥ 70
,O=C(NCc1cc(NC(=O)C2C(c3cc(Cl)cc(Cl)c3)C2(Cl)Cl)ccc1Cl)C1CC1 (stereo not drawn) [Compound 148],,,,,,,≥ 70,
,"O=C(NCc1c(F)ccc(NC(=O)C2C(c3ccc(F)c(Cl)c3)C2(Cl)Cl)c1F)C1CC1 (stereo not drawn) [Compound 164, 2,2-dichloro-3-(3-chloro-4-fluorophenyl)-N-[3-[[(cyclopropylcarbonyl)amino]methyl]-2,4-difluorophenyl]cyclopropanecarboxamide]",,,,,≥ 80,,,
,"O=C(CC(F)(F)F)NCc1cc(NC(=O)C2C(c3cc(F)c(Cl)c(F)c3)C2(Cl)Cl)ccc1F (stereo not drawn) [Compound 169, 2,2-dichloro-3-(4-chloro-3,5-difluorophenyl)-N-[4-fluoro-3-[[(3,3,3-trifluoro-1-oxopropyl)amino]methyl]phenyl]cyclopropanecarboxamide]",≥ 80,,≥ 80,,≥ 80,,,
,"O=C(CC(F)(F)F)NCc1c(F)ccc(NC(=O)C2C(c3ccc(F)c(Cl)c3)C2(Cl)Cl)c1F (stereo not drawn) [Compound 170, 2,2-dichloro-3-(3-chloro-4-fluorophenyl)-N-[2,4-difluoro-3-[[(3,3,3-trifluoro-1-oxopropyl)amino]methyl]phenyl]cyclopropanecarboxamide]",≥ 80,,≥ 80,,≥ 80,,,
,"O=C(Nc1ccc(Cl)c(CNC(=O)C(F)(F)F)c1)C1C(c2ccc(F)c(C(F)(F)F)c2)C1(Cl)Cl (stereo not drawn) [Compound 174, 2,2-dichloro-N-[4-chloro-3-[[(2,2,2-trifluoroacetyl)amino]methyl]phenyl]-3-[4-fluoro-3-(trifluoromethyl)phenyl]cyclopropanecarboxamide]",≥ 80,,≥ 80,,≥ 80,,,≥ 70
,"O=C(Nc1ccc(Cl)c(CNC(=O)C(F)(F)F)c1)C1C(c2ccc(Cl)c(Cl)c2)C1(Cl)Cl (stereo not drawn) [Compound 175, 2,2-dichloro-N-[4-chloro-3-[[(2,2,2-trifluoroacetyl)amino]methyl]phenyl]-3-(3,4-dichlorophenyl)cyclopropanecarboxamide]",≥ 80,,≥ 80,,≥ 80,,,
